ChEMBL document CHEMBL1201862, “PubChem BioAssay data set” (2004)
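Following 48 hours of exposure in 96-well plates, responses at five concentrations were used to interpolate endpoints linearly. The concentration for 50% growth inhibition is given as GI50.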 Activity calls are given as the source filed them. No stated cut-off is given here; in the data, active = GI50 up to about 1.1 µM and inactive = higher.

Columns and labels:
Assay in all cases: inhibition of tumour cell growth, NCI panel, 48 h
[1] = system: NCI-H23
[2] = system: SK-OV-3
[3] = system: SK-MEL-5
[4] = system: NCI/ADR-RES
[5] = system: SNB-75
[6] = system: HCC 2998
[7] = system: PC-3
[8] = system: SN12C
[9] = system: SR
[10] = system: MDA-MB-435
[11] = system: M14
[12] = system: MDA-MB-231
[13] = system: BT-549
[14] = system: SF-295
[15] = system: A549
[16] = system: OVCAR-3
[17] = system: T47D
[18] = system: NCI-H522
[19] = system: HOP-92
[20] = system: HL-60

Measured: GI50

O=[N+]([O-])C(C(Cl)=C(Cl)Cl)=C(n1cncn1)n1cncn1
inactive: [1] 25.6 µM | [2] > 100 µM | [3] 11.9 µM | [4] 25.1 µM | [5] > 44.2 µM | [6] > 58.3 µM | [7] 32.1 µM | [8] 12.4 µM | [9] 31.2 µM | [10] 30.8 µM | [11] 31.4 µM | [12] 19.5 µM | [13] 18.7 µM | [14] > 86.7 µM | [15] > 22.1 µM | [16] 18.2 µM | [17] 19 µM | [18] 14 µM

CCCCCC(=O)CCCCCCCC(O)CC(=O)OCC (stereo unspecified)
inactive: [1] > 100 µM | [3] > 100 µM | [4] > 100 µM | [19] 49.1 µM | [20] 48.9 µM | [6] > 100 µM | [7] > 100 µM | [8] > 100 µM | [9] > 100 µM | [10] > 100 µM | [11] > 100 µM | [12] > 100 µM | [13] 37.8 µM | [14] > 10 µM | [15] > 100 µM | [16] > 100 µM | [17] > 100 µM | [18] > 100 µM

Cc1cc(N2CCOCC2)nc2ccc(Cc3ccc4nc(N5CCOCC5)cc(C)c4c3)cc12
inactive: [1] 54 µM | [2] > 100 µM | [3] 16.2 µM | [4] 41.8 µM | [5] 35.2 µM | [19] > 100 µM | [6] 15.6 µM | [7] 56.4 µM | [8] 55.8 µM | [9] 28.3 µM | [10] 43.3 µM | [11] 41.1 µM | [12] > 100 µM | [13] 60.7 µM | [14] 78.7 µM | [15] 41.7 µM | [16] 33.3 µM | [17] 14.6 µM | [18] 26.5 µM

CC(C)/C=N\N1C(N)=C(C#N)C(C#N)(C#N)C1C(C)C (stereo unspecified)
inactive: [1] 64.9 µM | [2] > 100 µM | [3] 38.3 µM | [4] 31.3 µM | [5] 42.8 µM | [20] 32.4 µM | [6] 34.4 µM | [7] 55.3 µM | [8] 69.8 µM | [9] 29.3 µM | [10] 23.4 µM | [11] 66.1 µM | [12] 29.9 µM | [13] 35.2 µM | [14] > 100 µM | [15] 60.4 µM | [16] 48.2 µM | [17] 48.9 µM | [18] 62.1 µM

Cc1cn(C(Cc2ccccc2)OCCO)c(=O)[nH]c1=O (stereo unspecified)
inactive: [1] > 100 µM | [3] > 100 µM | [4] > 100 µM | [5] > 100 µM | [19] > 100 µM | [6] > 100 µM | [7] > 100 µM | [8] > 100 µM | [9] > 100 µM | [10] > 100 µM | [11] > 100 µM | [12] > 100 µM | [13] > 100 µM | [14] > 100 µM | [15] > 100 µM | [16] > 100 µM | [17] > 100 µM

CN(C)CCn1c(=O)nc2c3c(c([N+](=O)[O-])ccc31)Nc1ccc(O)cc1-2
inactive: [1] 5.46 µM | [2] 15.3 µM | [3] 4.45 µM | [4] 34.2 µM | [5] 6.28 µM | [19] 2.69 µM | [6] 2.48 µM | [7] 4.25 µM | [8] 2.61 µM | [9] 1.12 µM | [10] 10.4 µM | [11] 13.4 µM | [12] 2.07 µM | [13] 14.5 µM | [14] 7.21 µM | [15] 2.53 µM | [16] 2.01 µM | [17] 2.37 µM | [18] 1.43 µM

N=C(N)N/N=C/c1ccc(O)c(C(=O)O)c1
inactive: [1] > 100 µM | [2] > 100 µM | [3] > 100 µM | [4] > 100 µM | [5] 3.22 µM | [19] > 100 µM | [6] > 100 µM | [7] > 100 µM | [9] > 100 µM | [10] > 100 µM | [11] > 100 µM | [12] > 100 µM | [13] > 100 µM | [14] > 100 µM | [15] > 100 µM | [16] > 100 µM | [17] > 100 µM | [18] > 100 µM

c1ccc2nn(C3CCCCO3)nc2c1 (stereo unspecified)
inactive: [1] > 100 µM | [2] > 100 µM | [3] > 100 µM | [4] > 100 µM | [5] > 100 µM | [6] > 100 µM | [7] > 100 µM | [8] > 100 µM | [9] > 100 µM | [10] > 100 µM | [11] > 100 µM | [12] > 100 µM | [13] > 100 µM | [14] > 100 µM | [15] > 100 µM | [16] > 100 µM | [17] > 100 µM | [18] > 100 µM
